Experimental data from PMC2748416 (Biochemistry, 2009).
Read-outs that look alike come from different tables or passages of the source.

Experiments:
MshC T83V mutant = MshC T83V mutant (Mycolicibacterium smegmatis, UniProt A0QZY0, T83V); assay type: biochemical, Mycobacterium smegmatis
MshC H55A mutant [1] = target: T1, MshC H55A mutant (Mycolicibacterium smegmatis, UniProt A0QZY0, H55A); conditions: for Km: steady state, pH 7.8, 25 °C
MshC D251N mutant [2] = target: T2, MshC D251N mutant (Mycolicibacterium smegmatis, UniProt A0QZY0, D251N)
MshC W227F mutant [3] = target: T3, MshC W227F mutant (Mycolicibacterium smegmatis, UniProt A0QZY0, W227F); assay: Pre-steady state kinetics of cysteine adenylation; assay type: biochemical, Mycobacterium smegmatis
MshC T46V mutant [4] = target: T4, MshC T46V mutant (Mycolicibacterium smegmatis, UniProt A0QZY0, T46V); assay: Pre-steady state kinetics of cysteine adenylation; assay type: biochemical, Mycobacterium smegmatis
MshC W227F mutant [5] = target: T3, MshC W227F mutant
MshC W227H mutant [6] = target: T5, MshC W227H mutant (Mycolicibacterium smegmatis, UniProt A0QZY0, W227H)
WT MshC [7] = target: T6, WT MshC (Mycolicibacterium smegmatis, UniProt A0QZY0); assay: Pre-steady state kinetics of cysteine adenylation; assay type: biochemical, Mycobacterium smegmatis
T6 sequence (A0QZY0 1-412): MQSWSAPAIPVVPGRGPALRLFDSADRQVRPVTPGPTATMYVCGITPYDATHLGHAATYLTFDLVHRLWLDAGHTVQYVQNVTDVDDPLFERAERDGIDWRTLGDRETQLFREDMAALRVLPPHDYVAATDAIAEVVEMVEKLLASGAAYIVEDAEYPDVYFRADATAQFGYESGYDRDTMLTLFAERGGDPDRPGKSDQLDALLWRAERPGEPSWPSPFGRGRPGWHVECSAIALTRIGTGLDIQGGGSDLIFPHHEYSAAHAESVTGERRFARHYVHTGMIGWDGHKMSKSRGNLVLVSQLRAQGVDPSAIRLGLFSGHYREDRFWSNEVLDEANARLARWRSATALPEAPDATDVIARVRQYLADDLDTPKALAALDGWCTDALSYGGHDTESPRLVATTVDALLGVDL

MshC D251A mutant [8] = target: T7, MshC D251A mutant (Mycolicibacterium smegmatis, UniProt A0QZY0, D251A)
MshC T46V mutant [9] = target: T4, MshC T46V mutant
MshC D251N mutant [10] = target: T2, MshC D251N mutant; assay: Tryptophan fluorescence titration of inhibitor binding; design: species or system Mycobacterium smegmatis; conditions: fluorescence method, 0.1 μM protein, pH 7.8, 25 °C
MshC W227F mutant [11] = target: T3, MshC W227F mutant; assay: as above; design: species or system Mycobacterium smegmatis; conditions: fluorescence method, 0.1 μM protein, pH 7.8, 25 °C
WT MshC [12] = target: T6, WT MshC; assay: Coupled spectrophotometric enzyme assay; assay type: biochemical, Mycobacterium smegmatis; conditions: for Km: steady state, pH 7.8, 25 °C
MshC T46V mutant [13] = target: T4, MshC T46V mutant; assay: Tryptophan fluorescence titration of inhibitor binding; design: species or system Mycobacterium smegmatis; conditions: fluorescence method, 0.1 μM protein, pH 7.8, 25 °C
MshC W227H mutant [14] = target: T5, MshC W227H mutant; assay: as above; design: species or system Mycobacterium smegmatis; conditions: fluorescence method, 0.1 μM protein, pH 7.8, 25 °C
MshC D251A mutant [15] = target: T7, MshC D251A mutant; assay: as above; design: species or system Mycobacterium smegmatis; conditions: fluorescence method, 0.1 μM protein, pH 7.8, 25 °C
WT MshC [16] = target: T6, WT MshC; assay: as above; design: species or system Mycobacterium smegmatis; conditions: fluorescence method, 0.1 μM protein, pH 7.8, 25 °C
MshC H55A mutant [17] = target: T1, MshC H55A mutant; assay: as above; design: species or system Mycobacterium smegmatis; conditions: fluorescence method, 0.1 μM protein, pH 7.8, 25 °C
WT MshC [18] = target: T6, WT MshC; assay: Effect of added imidazole on enzyme activity; assay type: biochemical, Mycobacterium smegmatis
MshC H55A = MshC H55A (Mycolicibacterium smegmatis, UniProt A0QZY0, H55A); assay: Chemical rescue of enzyme activity by exogenous imidazole; assay type: biochemical, Mycobacterium smegmatis
WT MshC [19] = target: T6, WT MshC; conditions: up to 10 mM ATP; cited from earlier work
MshC H55A mutant [20] = target: T1, MshC H55A mutant; assay: Pre-steady state kinetics of cysteine adenylation; assay type: biochemical, Mycobacterium smegmatis; conditions: read-out: Kd-ATP; first half reaction, fit to eq 9
MshC D251N mutant [21] = target: T2, MshC D251N mutant; assay: Pre-steady state kinetics of cysteine adenylation; assay type: biochemical, Mycobacterium smegmatis; conditions: read-out: Kd-ATP; first half reaction, fit to eq 9
[22] = read-out: Km-cys, steady state, pH 7.8, 25 °C
[23] = read-out: Km-ATP, steady state, pH 7.8, 25 °C
[24] = read-out: Km-GlcN-Ins, at fixed saturating concentrations of ATP and cysteine

In the case of `N[C@@H](CS)C(=O)O` [cys, L-cysteine], the Km (MshC T83V mutant; [22]) is reported as 20 ± 1 µM, the Km (MshC H55A mutant [1]; read-out: Km-cys) is reported as 1100 ± 200 µM and the Km (MshC D251N mutant [2]; [22]) is reported as 480 ± 150 µM. It also gave a Kd (MshC W227F mutant [3]) of 600 ± 100 µM, a Kd (MshC T46V mutant [4]) of 800 ± 100 µM and a Km (MshC W227F mutant [5]; [22]) of 400 ± 100 µM. It also gave a Km (MshC W227H mutant [6]; [22]) of 120 ± 40 µM, a Kd (WT MshC [7]) of 160 ± 30 µM and a Km (MshC D251A mutant [8]; [22]) of 170 ± 20 µM. It also gave a Km (MshC T46V mutant [9]; [22]) of 1900 ± 200 µM.

In the case of `Nc1ncnc2c1ncn2[C@@H]1O[C@H](COS(=O)(=O)NC(=O)[C@@H](N)CS)[C@@H](O)[C@H]1O` [CSA, 5'-O-[N-(L-cysteinyl)-sulfamonyl]adenosine, reference compound], the Ki (MshC H55A mutant [1]) is reported as 0.89 ± 0.06 µM, the Kd (MshC D251N mutant [10]) is reported as 0.18 ± 0.013 µM and the Kd (MshC W227F mutant [11]) is reported as 0.053 ± 0.01 µM. For the same compound, the Ki (MshC D251N mutant [2]) was 0.52 ± 0.11 µM, the Ki (WT MshC [12]) was 0.304 ± 0.04 µM and the Kd (MshC T46V mutant [13]) was 0.15 ± 0.01 µM. The Kd (MshC W227H mutant [14]) was 0.045 ± 0.002 µM, the Ki (MshC W227F mutant [5]) was 0.056 ± 0.008 µM and the Kd (MshC D251A mutant [15]) was 0.34 ± 0.01 µM. For the same compound, the Ki (MshC W227H mutant [6]) was 0.03 ± 0.005 µM, the Kd (WT MshC [16]) was 0.11 ± 0.01 µM and the Ki (MshC D251A mutant [8]) was 0.93 ± 0.17 µM. The Ki (MshC T46V mutant [9]) was 0.36 ± 0.047 µM and the Kd (MshC H55A mutant [17]) was 0.35 ± 0.02 µM.

For `c1c[nH]cn1` [imidazole], the “effect of added imidazole on enzyme activity” value (WT MshC [18]) was “No significant activating or inhibitory effect”, the “increase of kcat value” (MshC H55A; 100 mM added imidazole, pH 6.75) was “seven-fold increase” and the “change in enzyme activity upon addition of imidazole” value (MshC H55A; pH 7.8 and pH 9) was “no changes”.

For `N[C@@H](CO)C(=O)O` [serine], the activity as substrate (WT MshC [12]; tested up to 5 mM) was “no activity”.

In the case of `Nc1ncnc2c1ncn2[C@@H]1O[C@H](COP(=O)(O)OP(=O)(O)OP(=O)(O)O)[C@@H](O)[C@H]1O` [ATP], the Km (MshC T83V mutant; [23]) is listed as 320 ± 60 µM, the Km (MshC H55A mutant [1]; read-out: Km-ATP) is listed as 5200 ± 100 µM and the substrate inhibition (WT MshC [19]) is listed as “no substrate inhibition”. For the same compound, the Km (MshC D251N mutant [2]; [23]) was 8900 ± 1600 µM, the substrate inhibition (MshC D251N mutant [2]; up to 20 mM ATP) was “not observed” and the Km (WT MshC [12]; read-out: Km-ATP) was 1800 ± 100 µM. For the same compound, the Kd (MshC H55A mutant [20]) was 15000 ± 3000 µM, the Km (MshC W227F mutant [5]; [23]) was 200 ± 50 µM and the Kd (MshC D251N mutant [21]) was 10200 ± 2800 µM. For the same compound, the Km (MshC W227H mutant [6]; [23]) was 120 ± 10 µM, the Kd (WT MshC [7]; read-out: Kd-ATP, first half reaction, fit to eq 9) was 1700 ± 200 µM and the “ATP concentration above which enzyme activity decreases” value (MshC D251A mutant [8]; 2 mM cysteine, 200 μM GlcN-Ins) was ~ 1.1 mM. It also gave a Km (MshC D251A mutant [8]; [23]) of 360 ± 11 µM and a Km (MshC T46V mutant [9]; [23]) of 1100 ± 30 µM.

`N[C@H]1[C@@H](OC2[C@H](O)[C@H](O)C(O)[C@H](O)[C@H]2O)O[C@H](CO)[C@@H](O)[C@@H]1O` (stereo partly shown) [GlcN-Ins, glucosamine-inositol] showed a Km (MshC T83V mutant; [24]) of 170 ± 50 µM, a Km (MshC D251N mutant [2]; [24]) of 100 ± 60 µM and a Km (WT MshC [12]; read-out: Km-GlcN-Ins) of 160 ± 50 µM. The Km (MshC W227F mutant [5]; [24]) was 150 ± 60 µM, the Km (MshC W227H mutant [6]; [24]) was 600 ± 10 µM and the Km (MshC D251A mutant [8]; [24]) was 160 ± 10 µM. The Km (MshC T46V mutant [9]; [24]) was 150 ± 80 µM.
